Data as given in a flash point compilation (Sun et al. 2020).
Structures can show the parent of a compound that is named as a salt.

First: CCCSC(=O)N(CCC)CCC [S-propyl N,N-dipropylcarbamothioate]
Second: CCCSC(=O)Cl [S-propyl chloromethanethioate]
The flash point of the first is higher: 122.00 °C for the first, 62.00 °C for the second.

First: C#CCOS(=O)OC1CCCCC1Oc1ccc(C(C)(C)C)cc1 (centres undefined) [[2-(4-tert-butylphenoxy)cyclohexyl] prop-2-ynyl sulfite]
Second: COC(=O)c1ccc(C(=O)OC)cc1 [dimethyl benzene-1,4-dicarboxylate]
The flash point of the first is lower: 28.00 °C for the first, 153.00 °C for the second.

First: OCC1CCC(CO)CC1 (centres undefined) [[4-(hydroxymethyl)cyclohexyl]methanol]
Second: ClC1CCCCC1 [chlorocyclohexane]
The flash point of the first is higher: 166.00 °C for the first, 32.00 °C for the second.

Compared with `C/C=C/c1ccccc1` [[(E)-prop-1-enyl]benzene], `O=Cc1ccccc1` [benzaldehyde] is higher in flash point: 52.00 °C for the first, 64.00 °C for the second.

Compared with `C[Si](C)(C)N[Si](C)(C)C` [[dimethyl-(trimethylsilylamino)silyl]methane], `C[Si](C)(C)Cl` [chloro(trimethyl)silane] is lower in flash point: 9.00 °C for the first, -18.00 °C for the second.

Going from `CC(=O)OC(C)=O` [acetyl acetate] to `CC(=O)OOC(C)=O` [acetyl ethaneperoxoate], the flash point falls from 49.00 °C to 45.00 °C.

First: CC(=O)Br [acetyl bromide]
Second: CC(=O)Cl [acetyl chloride]
The flash point of the first is higher: 75.00 °C for the first, 4.00 °C for the second.

Going from `C#C` [acetylene] to `CC(=O)[O][Hg][c]1ccccc1` [acetyloxy(phenyl)mercury], the flash point rises from -18.00 °C to 60.00 °C.

Going from `Nc1ccccc1` [aniline] to `Sc1ccccc1` [benzenethiol], the flash point falls from 70.00 °C to 53.00 °C.

Compared with `COc1ccccc1` [anisole], `CC(C)c1ccccc1` [cumene] is lower in flash point: 52.00 °C for the first, 36.00 °C for the second.

Compared with `N#Cc1ccccc1C#N` [benzene-1,2-dicarbonitrile], `N#Cc1ccccc1` [benzonitrile] is lower in flash point: 162.00 °C for the first, 72.00 °C for the second.

Compared with `Oc1cccc(O)c1` [benzene-1,3-diol], `Oc1ccc(O)cc1` [benzene-1,4-diol] is higher in flash point: 127.00 °C for the first, 165.00 °C for the second.

Going from `Nc1ccc(N)cc1` [benzene-1,4-diamine] to `O=c1ccc2ccccc2o1` [chromen-2-one], the flash point falls from 155.00 °C to 151.00 °C.

Compared with `O=C(Cl)c1ccc(C(=O)Cl)cc1` [benzene-1,4-dicarbonyl chloride], `COC(=O)c1cccc(C(=O)OC)c1` [dimethyl benzene-1,3-dicarboxylate] is lower in flash point: 180.00 °C for the first, 138.00 °C for the second.

Going from `c1ccccc1` [benzene] to `Cl[Si](Cl)(c1ccccc1)c1ccccc1` [dichloro(diphenyl)silane], the flash point rises from -11.00 °C to 142.00 °C.

First: c1ccc2c(c1)ccc1ncccc12 [benzo[f]quinoline]
Second: O=C(OCc1ccccc1)c1ccccc1 [benzyl benzoate]
The flash point of the first is higher: 166.00 °C for the first, 148.00 °C for the second.

Compared with `CC(=O)OCc1ccccc1` [benzyl acetate], `ClCc1ccccc1` [chloromethylbenzene] is lower in flash point: 91.00 °C for the first, 67.00 °C for the second.

First: CCCCC(CC)COC(=O)c1ccc(C(=O)OCC(CC)CCCC)cc1 (centres undefined) [bis(2-ethylhexyl) benzene-1,4-dicarboxylate]
Second: CCCCC(CC)COC(=O)CCCCC(=O)OCC(CC)CCCC (centres undefined) [bis(2-ethylhexyl) hexanedioate]
The flash point of the first is higher: 238.00 °C for the first, 196.00 °C for the second.

First: CCCCC(CC)COC(=O)CCCCCCCCC(=O)OCC(CC)CCCC (centres undefined) [bis(2-ethylhexyl) decanedioate]
Second: CCCCOC(=O)CCCCCCCCC(=O)OCCCC [dibutyl decanedioate]
The flash point of the first is higher: 210.00 °C for the first, 178.00 °C for the second.

`CC(C)CCCCCOC(=O)c1ccccc1C(=O)OCCCCCC(C)C` [bis(6-methylheptyl) benzene-1,2-dicarboxylate] and `CC(C)CCCCCCCOC(=O)c1ccccc1C(=O)OCCCCCCCC(C)C` [bis(8-methylnonyl) benzene-1,2-dicarboxylate] are the same in flash point: 232.00 °C for the first, 232.00 °C for the second.

Compared with `CC(C)CCCCCCOC(=O)C1CCCCC1C(=O)OCCCCCCC(C)C` (centres undefined) [bis(7-methyloctyl) cyclohexane-1,2-dicarboxylate], `CCCCCCOC(=O)CCCCC(=O)OCCCCCC` [dihexyl hexanedioate] is lower in flash point: 224.00 °C for the first, 163.00 °C for the second.

Going from `CC(=O)C=C=O` [but-1-ene-1,3-dione] to `C=CC(C)=O` [but-3-en-2-one], the flash point falls from 33.00 °C to -7.00 °C.

`OC=CCCO` [but-1-ene-1,4-diol] and `OCC=CCO` [but-2-ene-1,4-diol] are the same in flash point: 128.00 °C for the first, 128.00 °C for the second.

Going from `C=CCC` [but-1-ene] to `CCCl` [chloroethane], the flash point rises from -79.00 °C to -50.00 °C.

First: CC=CC(=O)O [but-2-enoic acid]
Second: C=CC(=O)OCCCC [butyl prop-2-enoate]
The flash point of the first is higher: 88.00 °C for the first, 49.00 °C for the second.

Compared with `C=CC=C` [buta-1,3-diene], `C=CCl` [chloroethene] is lower in flash point: -76.00 °C for the first, -79.00 °C for the second.

Compared with `CCCCO.CCCCO.CCCCO.CCCCO.[Ti]` [butan-1-ol;titanium], `CCCCCCCCCCCCO` [dodecan-1-ol] is higher in flash point: 77.00 °C for the first, 127.00 °C for the second.

First: CCC(C)N (centres undefined) [butan-2-amine]
Second: CC(N)CCN (centres undefined) [butane-1,3-diamine]
The flash point of the first is lower: -9.00 °C for the first, 52.00 °C for the second.

First: CCC(C)=O [butan-2-one]
Second: CCC(C)OC(C)=O (centres undefined) [butan-2-yl acetate]
The flash point of the first is lower: -3.00 °C for the first, 17.00 °C for the second.

Going from `CCC(C)c1ccccc1` (centres undefined) [butan-2-ylbenzene] to `CCCCc1ccccc1` [butylbenzene], the flash point rises from 52.00 °C to 71.00 °C.

Compared with `OCCCCO` [butane-1,4-diol], `COC(=O)CCCCC(=O)OC` [dimethyl hexanedioate] is lower in flash point: 119.00 °C for the first, 107.00 °C for the second.

Going from `CCCCS` [butane-1-thiol] to `CCCCCCCCCCS` [decane-1-thiol], the flash point rises from 13.00 °C to 98.00 °C.

First: CC(=O)C(C)=O [butane-2,3-dione]
Second: CCOC(=O)CC(=O)OCC [diethyl propanedioate]
The flash point of the first is lower: 27.00 °C for the first, 93.00 °C for the second.

Going from `N#CCCC#N` [butanedinitrile] to `N#CN` [cyanamide], the flash point rises from 132.00 °C to 141.00 °C.

Compared with `O=C(O)CCC(=O)O` [butanedioic acid], `O=C(O)CCCCCCCCC(=O)O` [decanedioic acid] is higher in flash point: 160.00 °C for the first, 220.00 °C for the second.

`CCCC(=O)Cl` [butanoyl chloride] and `CCCCOC(C)=O` [butyl acetate] are the same in flash point: 22.00 °C for the first, 22.00 °C for the second.

Compared with `CCCCOC(=O)C(C)O` (centres undefined) [butyl 2-hydroxypropanoate], `CCCCOC(=O)CC(C)C` [butyl 3-methylbutanoate] is lower in flash point: 71.00 °C for the first, 53.00 °C for the second.

Going from `CCCCCCCC/C=C\CCCCCCCC(=O)OCCCC` [butyl (Z)-octadec-9-enoate] to `CCCCCCOC(=O)CCCCCCCC(=O)OCCCCCC` [dihexyl nonanedioate], the flash point rises from 180.00 °C to 204.00 °C.

Going from `CCCCOC(=O)c1ccccc1` [butyl benzoate] to `CCCCOC(=O)c1ccccc1C(=O)OCCCC` [dibutyl benzene-1,2-dicarboxylate], the flash point rises from 107.00 °C to 157.00 °C.

First: CCCCOC=O [butyl formate]
Second: CCCCOC(=O)CC [butyl propanoate]
The flash point of the first is lower: 18.00 °C for the first, 38.00 °C for the second.

Going from `C1=CCCC=CCCC=CCC1` [cyclododeca-1,5,9-triene] to `C1=CCCC=C1` [cyclohexa-1,3-diene], the flash point falls from 71.00 °C to 26.00 °C.

First: SC1CCCCC1 [cyclohexanethiol]
Second: O=C1CCCCC1 [cyclohexanone]
The flash point of the first is lower: 43.00 °C for the first, 44.00 °C for the second.

First: C1=CCCCC1 [cyclohexene]
Second: [Ni+2].c1cc[cH-]c1.c1cc[cH-]c1 [cyclopenta-1,3-diene;nickel(2+)]
The flash point of the first is lower: -12.00 °C for the first, 4.00 °C for the second.

Compared with `C=CCCCCCCCC` [dec-1-ene], `C=CCCCCCCCCCC` [dodec-1-ene] is higher in flash point: 53.00 °C for the first, 100.00 °C for the second.

First: CCCCCCCCCC=O [decanal]
Second: CCCCCCCCCC(=O)O [decanoic acid]
The flash point of the first is lower: 85.00 °C for the first, 113.00 °C for the second.

Going from `CCCCCCCCCCc1ccccc1` [decylbenzene] to `CCCCCCOC(=O)c1ccccc1C(=O)OCCCCCC` [dihexyl benzene-1,2-dicarboxylate], the flash point rises from 107.00 °C to 177.00 °C.

First: CCCCOC(=O)CCCCC(=O)OCCCC [dibutyl hexanedioate]
Second: CCCCCCCCOC(=O)CCCCC(=O)OCCCCCCCC [dioctyl hexanedioate]
The flash point of the first is lower: 113.00 °C for the first, 196.00 °C for the second.

First: CCCCOP(=O)(O)OCCCC [dibutyl hydrogen phosphate]
Second: CCC[CH2][Sn]([Cl])([Cl])[CH2]CCC [dibutyl(dichloro)stannane]
The flash point of the first is higher: 188.00 °C for the first, 168.00 °C for the second.

Going from `CCCCCCCCCCCCCCCCCC(=O)O.O.[Cl][Cr][Cl].[Cl][Cr][Cl]` [dichlorochromium;octadecanoic acid;hydrate] to `CCCCCCCCCCOC(=O)c1ccccc1C(=O)OCCCCCCCCCC` [didecyl benzene-1,2-dicarboxylate], the flash point rises from 2.00 °C to 232.00 °C.

First: COC(=O)c1ccccc1C(=O)OC [dimethyl benzene-1,2-dicarboxylate]
Second: CCCCCOC(=O)c1ccccc1C(=O)OCCCCC [dipentyl benzene-1,2-dicarboxylate]
The flash point of the first is lower: 146.00 °C for the first, 181.00 °C for the second.

Compared with `[CH3][Hg][CH3]` [dimethylmercury], `CCCOC(=O)c1ccc(C(=O)OCCC)nc1` [dipropyl pyridine-2,5-dicarboxylate] is higher in flash point: 5.00 °C for the first, 93.00 °C for the second.

First: CCCCCCCCCOC(=O)c1ccccc1C(=O)OCCCCCCCCC [dinonyl benzene-1,2-dicarboxylate]
Second: CCCCCCCCCCCCCOC(=O)c1ccccc1C(=O)OCCCCCCCCCCCCC [ditridecyl benzene-1,2-dicarboxylate]
The flash point of the first is lower: 216.00 °C for the first, 238.00 °C for the second.
